Results: patent US20170190671A1, “BIS(ARYL)CATECHOL DERIVATIVES AS HERBICIDES” (E I DU PONT DE NEMOURS AND COMPANY, priority 2014, published 2017)

Experiments:
Test in all cases: Test D postemergence
Assay type in all cases: in vivo
Conditions in all cases: scale 0 to 100
[1] = tested on: green foxtail (Setaria viridis)
From the text: (§1) Seeds of plant species selected from bluegrass (annual bluegrass, Poa annua), blackgrass (Alopecurus myosuroides), canarygrass (Phalaris minor), chickweed (common chickweed, Stellaria media), cutleaf geranium (Geranium dissectum), galium (catchweed bedstraw, Galium aparine), downy bromegrass (Bromus tectorum), field poppy (Papaver rhoeas), field violet (Viola arvensis), green foxtail (Setaria viridis), deadnettle (henbit deadnettle, Lamium amplexicaule), Italian ryegrass (Lolium multiflorum), kochia (Kochia scoparia), lambsquarters (Chenopodium album), oilseed rape (Brassica napus), pigweed (Amaranthus retroflexus), chamomile (scentless chamomile, Matricaria inodora), Russian thistle (Salsola kali), speedwell (bird's-eye speedwell, Veronica persica), spring barley (Hordeum vulgare), spring wheat (Triticum aestivum), wild buckwheat (Polygonum convolvulus), wild mustard (Sinapis arvensis), wild oat (Avenafatua), wild radish (Raphanus raphanistrum), windgrass (Apera spica-venti), winter barley (Hordeum vulgare), and winter wheat (Triticum aestivum) were planted into a silt loam soil and treated preemergence with test chemicals formulated in a non-phytotoxic solvent mixture which included a surfactant.
(§2) At the same time, these species were planted in pots containing Redi-Earth® planting medium (Scotts Company, 14111 Scottslawn Road, Marysville, Ohio 43041) comprising spaghnum peat moss, vermiculite, wetting agent and starter nutrients and treated with postemergence applications of the test chemicals formulated in the same manner. Plants ranged in height from 2 to 18 cm (1- to 4-leaf stage). Treated plants and controls were maintained in a controlled growth environment for 14 to 21 days after which time all species were compared to controls and visually evaluated. Plant response ratings, summarized in Table D, are based on a scale of 0 to 100 where 0 is no effect and 100 is complete control. A dash (-) response means no test result.

[2] = tested on: lambsquarters (Chenopodium album)
From the text: as §1, §2

[3] = tested on: wild radish (Raphanus raphanistrum)
From the text: as §1, §2

[4] = tested on: bluegrass (annual bluegrass, Poa annua)
From the text: as §1, §2

[5] = tested on: field poppy (Papaver rhoeas)
From the text: as §1, §2

[6] = tested on: chamomile (scentless chamomile, Matricaria inodora)
From the text: as §1, §2

[7] = tested on: galium (catchweed bedstraw, Galium aparine)
From the text: as §1, §2

[8] = tested on: spring wheat (Triticum aestivum)
From the text: as §1, §2

[9] = tested on: downy bromegrass (Bromus tectorum)
From the text: as §1, §2

kochia (Kochia scoparia) = tested on: kochia (Kochia scoparia)
From the text: as §1, §2

[10] = tested on: winter barley (Hordeum vulgare)
From the text: as §1, §2

[11] = tested on: blackgrass (Alopecurus myosuroides)
From the text: as §1, §2

[12] = tested on: wild buckwheat (Polygonum convolvulus)
From the text: as §1, §2

[13] = tested on: winter wheat (Triticum aestivum)
From the text: as §1, §2

[14] = tested on: oilseed rape (Brassica napus)
From the text: as §1, §2

[15] = tested on: Italian ryegrass (Lolium multiflorum)
From the text: as §1, §2

[16] = tested on: speedwell (bird's-eye speedwell, Veronica persica)
From the text: as §1, §2

[17] = tested on: field violet (Viola arvensis)
From the text: as §1, §2

[18] = tested on: wild mustard (Sinapis arvensis)
From the text: as §1, §2

[19] = tested on: chickweed (common chickweed, Stellaria media)
From the text: as §1, §2

N#Cc1cccc(Oc2ncc(Cl)cn2)c1Oc1ncc(Cl)cn1 [Compound 3, 2,3-bis[(5-chloro-2-pyrimidinyl)oxy]benzonitrile]
Plant response rating, Foxtail, Green ([1]; 16 g ai/ha): 10
Plant response rating, Foxtail, Green ([1]; 31 g ai/ha): 15
Plant response rating, Foxtail, Green ([1]; 62 g ai/ha): 20
Plant response rating, Foxtail, Green ([1]; 125 g ai/ha): 40
Plant response rating, Lambsquarters ([2]; 16 g ai/ha): 70
Plant response rating, Lambsquarters ([2]; 31 g ai/ha): 80
Plant response rating, Lambsquarters ([2]; 62 g ai/ha): 100
Plant response rating, Lambsquarters ([2]; 125 g ai/ha): 100
Plant response rating, Radish, Wild ([3]; 16 g ai/ha): 50
Plant response rating, Radish, Wild ([3]; 31 g ai/ha): 60
Plant response rating, Radish, Wild ([3]; 62 g ai/ha): 75
Plant response rating, Radish, Wild ([3]; 125 g ai/ha): 85
Plant response rating, Bluegrass ([4]; 16 g ai/ha): 15
Plant response rating, Bluegrass ([4]; 31 g ai/ha): 20
Plant response rating, Bluegrass ([4]; 62 g ai/ha): 25
Plant response rating, Bluegrass ([4]; 125 g ai/ha): 30
Plant response rating, Field Poppy ([5]; 16 g ai/ha): 35
Plant response rating, Field Poppy ([5]; 31 g ai/ha): 40
Plant response rating, Field Poppy ([5]; 62 g ai/ha): 55
Plant response rating, Field Poppy ([5]; 125 g ai/ha): 70
Plant response rating, Chamomile ([6]; 16 g ai/ha): 0
Plant response rating, Chamomile ([6]; 31 g ai/ha): 0
Plant response rating, Chamomile ([6]; 62 g ai/ha): 20
Plant response rating, Chamomile ([6]; 125 g ai/ha): 35
Plant response rating, Galium ([7]; 16 g ai/ha): 75
Plant response rating, Galium ([7]; 31 g ai/ha): 95
Plant response rating, Galium ([7]; 62 g ai/ha): 100
Plant response rating, Galium ([7]; 125 g ai/ha): 100
Plant response rating, Wheat, Spring ([8]; 16 g ai/ha): 0
Plant response rating, Wheat, Spring ([8]; 31 g ai/ha): 0
Plant response rating, Wheat, Spring ([8]; 62 g ai/ha): 5
Plant response rating, Wheat, Spring ([8]; 125 g ai/ha): 15
Plant response rating, Bromegrass, Downy ([9]; 16 g ai/ha): 10
Plant response rating, Bromegrass, Downy ([9]; 31 g ai/ha): 20
Plant response rating, Bromegrass, Downy ([9]; 62 g ai/ha): 25
Plant response rating, Bromegrass, Downy ([9]; 125 g ai/ha): 25
Plant response rating, Kochia (kochia (Kochia scoparia); 16 g ai/ha): 85
Plant response rating, Kochia (kochia (Kochia scoparia); 31 g ai/ha): 100
Plant response rating, Kochia (kochia (Kochia scoparia); 62 g ai/ha): 100
Plant response rating, Kochia (kochia (Kochia scoparia); 125 g ai/ha): 100
Plant response rating, Barley, Winter ([10]; 16 g ai/ha): 0
Plant response rating, Barley, Winter ([10]; 31 g ai/ha): 5
Plant response rating, Barley, Winter ([10]; 62 g ai/ha): 10
Plant response rating, Barley, Winter ([10]; 125 g ai/ha): 15
Plant response rating, Blackgrass ([11]; 16 g ai/ha): 5
Plant response rating, Blackgrass ([11]; 31 g ai/ha): 10
Plant response rating, Blackgrass ([11]; 62 g ai/ha): 15
Plant response rating, Blackgrass ([11]; 125 g ai/ha): 20
Plant response rating, Buckwheat, Wild ([12]; 16 g ai/ha): 85
Plant response rating, Buckwheat, Wild ([12]; 31 g ai/ha): 90
Plant response rating, Buckwheat, Wild ([12]; 62 g ai/ha): 95
Plant response rating, Buckwheat, Wild ([12]; 125 g ai/ha): 100
Plant response rating, Wheat, Winter ([13]; 16 g ai/ha): 0
Plant response rating, Wheat, Winter ([13]; 31 g ai/ha): 10
Plant response rating, Wheat, Winter ([13]; 62 g ai/ha): 10
Plant response rating, Wheat, Winter ([13]; 125 g ai/ha): 15
Plant response rating, Oilseed Rape ([14]; 16 g ai/ha): 40
Plant response rating, Oilseed Rape ([14]; 31 g ai/ha): 55
Plant response rating, Oilseed Rape ([14]; 62 g ai/ha): 60
Plant response rating, Oilseed Rape ([14]; 125 g ai/ha): 90
Plant response rating, Ryegrass, Italian ([15]; 16 g ai/ha): 0
Plant response rating, Ryegrass, Italian ([15]; 31 g ai/ha): 10
Plant response rating, Ryegrass, Italian ([15]; 62 g ai/ha): 10
Plant response rating, Ryegrass, Italian ([15]; 125 g ai/ha): 15
Plant response rating, Speedwell ([16]; 16 g ai/ha): 85
Plant response rating, Speedwell ([16]; 31 g ai/ha): 85
Plant response rating, Speedwell ([16]; 62 g ai/ha): 100
Plant response rating, Speedwell ([16]; 125 g ai/ha): 100
Plant response rating, Field Violet ([17]; 16 g ai/ha): 90
Plant response rating, Field Violet ([17]; 31 g ai/ha): 100
Plant response rating, Field Violet ([17]; 62 g ai/ha): 100
Plant response rating, Field Violet ([17]; 125 g ai/ha): 100
Plant response rating, Mustard, Wild ([18]; 16 g ai/ha): 45
Plant response rating, Mustard, Wild ([18]; 31 g ai/ha): 60
Plant response rating, Mustard, Wild ([18]; 62 g ai/ha): 65
Plant response rating, Mustard, Wild ([18]; 125 g ai/ha): 85
Plant response rating, Chickweed ([19]; 16 g ai/ha): 50
Plant response rating, Chickweed ([19]; 31 g ai/ha): 70
Plant response rating, Chickweed ([19]; 62 g ai/ha): 80
Plant response rating, Chickweed ([19]; 125 g ai/ha): 100
